Data: US10577382B2, “Fused heterocyclic compound” (TAKEDA PHARMACEUTICAL COMPANY LIMITED, priority 2016, dated 2020)

Columns and labels:
HCT116 cells = assay: Growth inhibitory activity using HCT116 cells (Cell Titer-Glo); assay type: cell-based, human; details: compound 1 μM, 3 days; for inhibition at 1 µM: Homo sapiens, HCT-116, 72 h, read-out: Cell growth inhibition ratio at compound concentration of 1 μM
Description: HCT 116 cells (ATCC) were seeded in a 384-well plate at a density of 6×10^2 cells/well, and cultured overnight in a cell culture medium McCoy's 5A (Thermo Fisher Scientific) containing 10% FBS (fetal bovine serum) and 1% penicillin/streptomycin. The dissolved test compound was added in the cell medium, and the cell medium was left standing in a CO2 incubator (37° C.) for 3 days. A Cell Titer-Glo solution (Promega Corporation) was added, the mixture was stirred at room temperature for 10 minutes, and the emission value was measured by Envision (PerkinElmer). The inhibition ratio (%) of HCT116 cell growth by the test compound was calculated in accordance with the following expression. Inhibition ratio (%)=(1−(count of test compound−blank)÷(control−blank))×100
The count of the HCT116 cell suspension without addition of the compound was described as a control, and the count without addition of the compound and addition of HCT116 cells was described as a blank. The concentration at which the inhibition ratio was 50% was defined as an IC50 value.

CLK2 enzyme = biological target: T1, CLK2 enzyme (Homo sapiens, UniProt P49760); assay: Measurement of CLK2 inhibitory activity (LANCE time-resolved fluorescence, ULight-labeled MBP peptide); assay type: biochemical; details: compound 1 μM; for inhibition at 1 µM: ATP 1 mM, read-out: CLK2 activity inhibition ratio at compound concentration of 1 μM (ATP 1 mM)
T1 construct: purchased Thermo Fisher Scientific
T1 sequence (P49760 whole entry): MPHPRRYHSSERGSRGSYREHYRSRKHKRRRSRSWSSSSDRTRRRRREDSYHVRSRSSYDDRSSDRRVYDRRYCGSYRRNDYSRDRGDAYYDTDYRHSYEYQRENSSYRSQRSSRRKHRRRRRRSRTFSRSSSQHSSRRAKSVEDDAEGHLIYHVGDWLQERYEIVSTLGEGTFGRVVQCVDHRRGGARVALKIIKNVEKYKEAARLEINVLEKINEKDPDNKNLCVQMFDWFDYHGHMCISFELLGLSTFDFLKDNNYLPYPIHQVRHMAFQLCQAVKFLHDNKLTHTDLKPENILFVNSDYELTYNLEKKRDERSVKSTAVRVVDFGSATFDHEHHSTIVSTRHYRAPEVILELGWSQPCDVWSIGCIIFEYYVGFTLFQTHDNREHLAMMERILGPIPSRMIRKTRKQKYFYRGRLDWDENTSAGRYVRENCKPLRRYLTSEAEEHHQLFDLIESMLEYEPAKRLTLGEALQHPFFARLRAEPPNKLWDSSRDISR
Description: A test compound dissolved in DMSO was added to a reaction solution (50 mM HEPES (pH: 7.5), 10 mM MgCl2, 1 mM EGTA, 2 mM DTT, 0.01% Tween 20, 0.01% BSA) containing a CLK2 enzyme (Thermo Fisher Scientific) and an ULight-labeled MBP peptide (PerkinElmer), and the mixture was then reacted at room temperature for 10 minutes. An ATP solution was added to a final concentration of 1 mM to initiate an enzyme reaction, and the reaction was carried out at room temperature for 60 minutes. A europium-labeled anti-phosphorylated MBP antibody (PerkinElmer) and a LANCE Detection buffer (PerkinElmer) containing EDTA with a final concentration of 20 mM were added to stop the reaction, the mixture was left standing for 60 minutes, and the time-resolved fluorescence value (excitation 320 nm, and emission 615 nm and 665 nm) was measured by Envision (PerkinElmer). The inhibition ratio (%) of CLK2 by the test compound was calculated in accordance with the following expression. Inhibition ratio (%)=(1−(count of test compound−blank)÷(control−blank))×100
The count of the CLK2 enzyme reaction solution without addition of the compound was described as a control, and the count without addition of the compound and addition of the CLK2 enzyme was described as a blank. The concentration at which the inhibition ratio was 50% was defined as an IC50 value.

inhibition at 1 µM (CLK2 enzyme) [%] | CLK2 activity inhibition ratio at compound concentration of 1 μM (ATP 1 mM) (CLK2 enzyme) [%] | SMILES | inhibition at 1 µM (HCT116 cells) [%] | Cell growth inhibition ratio at compound concentration of 1 μM (HCT116 cells) [%]
100 | – | COc1ncnn2ccc(-c3cnc4nc(C)n(Cc5nnc(C(C)(C)F)o5)c4c3)c12 [Example 277, 1-((5-(2-fluoropropan-2-yl)-1,3,4-oxadiazol-2-yl)methyl)-6-(4-methoxypyrrolo[2,1-f][1,2,4]triazin-5-yl)-2-methyl-1H-imidazo[4,5-b]pyridine] | 95 | –
100 | – | COc1ncnn2ccc(-c3cnc4nc(C)n(Cc5nnc(C(C)(F)F)o5)c4c3)c12 [Example 274] | 93 | –
100 | – | COc1ncnn2ccc(-c3cnc4nc(C)n(Cc5nc(C)ns5)c4c3)c12 [Example 229, 6-(4-methoxypyrrolo[2,1-f][1,2,4]triazin-5-yl)-2-methyl-1-((3-methyl-1,2,4-thiadiazol-5-yl)methyl)-1H-imidazo[4,5-b]pyridine] | 97 | –
100 | – | COc1ncnn2ccc(-c3cnc4nc(C)n(Cc5nnc(C6(F)CC6)o5)c4c3)c12 [Example 283, 1-((5-(1-fluorocyclopropyl)-1,3,4-oxadiazol-2-yl)methyl)-6-(4-methoxypyrrolo[2,1-f][1,2,4]triazin-5-yl)-2-methyl-1H-imidazo[4,5-b]pyridine] | 96 | –
100 | – | COc1ncnn2ccc(-c3cnc4nc(C)n(Cc5cc(C)no5)c4c3)c12 [Example 215] | 95 | –
100 | – | COc1ncnn2ccc(-c3cnc4nc(C)n(Cc5nnc(C(F)F)o5)c4c3)c12 [Example 242, 1-((5-(difluoromethyl)-1,3,4-oxadiazol-2-yl)methyl)-6-(4-methoxypyrrolo[2,1-f][1,2,4]triazin-5-yl)-2-methyl-1H-imidazo[4,5-b]pyridine] | 94 | –

Continued, molecule first:

SMILES | inhibition at 1 µM (CLK2 enzyme) [%] | CLK2 activity inhibition ratio at compound concentration of 1 μM (ATP 1 mM) (CLK2 enzyme) [%] | inhibition at 1 µM (HCT116 cells) [%] | Cell growth inhibition ratio at compound concentration of 1 μM (HCT116 cells) [%]
COc1ncnn2ccc(-c3cnc4nc(CO)n(Cc5cc(F)cc(F)c5)c4c3)c12 [Example 176, (1-(3,5-difluorobenzyl)-6-(4-methoxypyrrolo[2,1-f][1,2,4]triazin-5-yl)-1H-imidazo[4,5-b]pyridin-2-yl)methanol] | 100 | – | 85 | –
COc1ncnc2ccn(-c3cnc4nc(C)n(Cc5cc(F)cc(F)c5)c4c3)c12 [Example 7, 1-(3,5-difluorobenzyl)-6-(4-methoxy-5H-pyrrolo[3,2-d]pyrimidin-5-yl)-2-methyl-1H-imidazo[4,5-b]pyridine] | 100 | – | 92 | –
COc1nc2ncc(-n3ccc4ncc(C(C)O)nc43)cc2n1Cc1cccc(F)c1 (stereo not shown) [Example 161, 1-(5-(1-(3-fluorobenzyl)-2-methoxy-1H-imidazo[4,5-b]pyridin-6-yl)-5H-pyrrolo[2,3-b]pyrazin-3-yl)ethanol] | 100 | – | 97 | –
COc1ncnn2ccc(-c3cnc4nc(C)n(Cc5noc(C)n5)c4c3)c12 [Example 214, 6-(4-methoxypyrrolo[2,1-f][1,2,4]triazin-5-yl)-2-methyl-1-((5-methyl-1,2,4-oxadiazol-3-yl)methyl)-1H-imidazo[4,5-b]pyridine] | 99 | – | 96 | –
COc1ccnc2ccn(-c3cnc4nc(C)n(Cc5cccc(F)c5)c4c3)c12 [Example 102, 1-(3-fluorobenzyl)-6-(7-methoxy-1H-pyrrolo[3,2-b]pyridin-1-yl)-2-methyl-1H-imidazo[4,5-b]pyridine] | 100 | – | 95 | –
COc1nc2ncc(-n3ccc4ncc(C(C)O)nc43)cc2n1Cc1cccc(F)c1 (stereo not shown) [Example 160, 1-(5-(1-(3-fluorobenzyl)-2-methoxy-1H-imidazo[4,5-b]pyridin-6-yl)-5H-pyrrolo[2,3-b]pyrazin-3-yl)ethanol] | – | 100 | – | 98
COc1ncnn2ccc(-c3cnc4nc(C)n(Cc5cccc(F)c5)c4c3)c12 [Example 175, 1-(3-fluorobenzyl)-6-(4-methoxypyrrolo[2,1-f][1,2,4]triazin-5-yl)-2-methyl-1H-imidazo[4,5-b]pyridine] | 100 | – | 91 | –
COc1ccnc2cnn(-c3cnc4nc(C)n(Cc5cccc(F)c5)c4c3)c12 [Example 105, 1-(1-(3-fluorobenzyl)-2-methyl-1H-imidazo[4,5-b]pyridin-6-yl)-7-methoxy-1H-pyrazolo[4,3-b]pyridine] | 100 | – | 96 | –
COc1ncnn2ccc(-c3cnc4nc(C)n(Cc5nnc(C)o5)c4c3)c12 [Example 193, 6-(4-methoxypyrrolo[2,1-f][1,2,4]triazin-5-yl)-2-methyl-1-((5-methyl-1,3,4-oxadiazol-2-yl)methyl)-1H-imidazo[4,5-b]pyridine] | 100 | – | 98 | –
COc1ncnn2ccc(-c3cnc4nc(C)n(Cc5nc(C)no5)c4c3)c12 [Example 186, 6-(4-methoxypyrrolo[2,1-f][1,2,4]triazin-5-yl)-2-methyl-1-((3-methyl-1,2,4-oxadiazol-5-yl)methyl)-1H-imidazo[4,5-b]pyridine] | 99 | – | 96 | –
COc1cnc2ccn(-c3cnc4nc(C)n(Cc5cccc(F)c5)c4c3)c2n1 [Example 110, 1-(3-fluorobenzyl)-6-(3-methoxy-5H-pyrrolo[2,3-b]pyrazin-5-yl)-2-methyl-1H-imidazo[4,5-b]pyridine] | 100 | – | 92 | –
